Measurements taken from publication PMC5771047 (Current Neuropharmacology, 2017).
“And” between values parts separate entries of the source, which are not always exact repeats. Equal entries are not always repeated. Where two headings read alike, the source gives them in different places.

What was measured:
[1] = for concentration at 6 h: pig, iv, 200 µg/kg BW
[2] = pigs, previous study; cited from earlier work
[3] = one human decedent of five postmortem cases; cited from earlier work
[4] = cited from earlier work
[5] = mice (n = 5), exposure to Magic Gold smoke (3.6% JWH-018, 5.7% JWH-073); cited from earlier work
[6] = human fatal case, cited from earlier work
[7] = pigs, 6 h after single i.v. 200 µg/kg BW

With hydroxypentyl-JWH-210 [HO-JWH-210] the “Concentration in abdominal adipose tissue, individual pig” value ([1]; pigs, 6 h after i.v. 200 µg/kg BW JWH-210, present in one pig only) was 6 ng/g and the “Concentration in perirenal adipose tissue, individual pigs” value ([1]; pigs, 6 h after i.v. 200 µg/kg BW JWH-210, present in two pigs only) was 4.5 ng/g and 9 ng/g.
In the case of `CCCCCc1cc(O)c2c(c1)OC(C)(C)[C@@H]1CCC(C)=C[C@@H]21` [THC, ∆9-tetrahydrocannabinol], the “Serum concentration six hours after administration” value [2] is listed as 7.1 ± 4.3 ng/mL, the “Peak concentration in muscle tissue” value [3] is listed as 40 ng/g and the LogP [4] is listed as 6.7. For the same compound, the concentration at 6 h ([1]; bile) was 77 ± 83 ng/g, the concentration at 6 h ([1]; brain (cerebellum)) was 24 ± 5.8 ng/g and the concentration at 6 h ([1]; brain (cerebrum)) was 12 ± 3.8 ng/g. It also gave a concentration at 6 h ([1]; heart) of 17 ± 7 ng/g, a concentration at 6 h ([1]; kidney (left)) of 24 ± 11 ng/g and a concentration at 6 h ([1]; kidney (right)) of 21 ± 16 ng/g. It also gave a concentration at 6 h ([1]; liver) of 18 ± 3.7 ng/g, a concentration at 6 h ([1]; lung (left)) of 61 ± 50 ng/g and a concentration at 6 h ([1]; lung (right)) of 69 ± 37 ng/g. For the same compound, the concentration at 6 h ([1]; psoas muscle) was 9.1 ± 3.3 ng/g, the concentration at 6 h ([1]; skeletal muscle) was 16 ± 0.94 ng/g and the concentration at 6 h ([1]; spleen) was 7.1 ± 3.8 ng/g. For the same compound, the Detection in dura [1, 7] was “not detected” and the “Detection in vitreous humor (qualitative analysis)” value [1, 7] was “not detected”.
For `CCCCCn1cc(C(=O)c2cccc3ccccc23)c2ccccc21` [JWH-018, naphthalen-1-yl-(1-pentylindol-3-yl)methanone], the “Concentration in brain specimens twenty hours post-exposure” value [5] is given as 19 ± 9 ng/g.
With `COc1ccc(C(=O)c2cn(CCCCC(=O)O)c3ccccc23)cc1` [RCS-4-COOH, RCS-4-pentanoic acid] the “Concentration in bile fluid, individual pigs” value ([1]; pigs, 6 h after i.v. 200 µg/kg BW RCS-4, two pigs) was 47 ng/g and 154 ng/g.
For hydroxypentyl-RCS-4 [HO-RCS-4], the LogP [4] is given as 4.08 and the “Concentration in skeletal muscle, individual pigs” value ([1]; pigs, 6 h after i.v. 200 µg/kg BW RCS-4, only in two pigs) is given as 5.7 ng/g and 1.6 ng/g.
In the case of `Cc1ccc(C(=O)c2cn(CCCCCF)c3ccccc23)c2ccccc12` [MAM-2201], the “Concentration in adipose tissue” value ([6]; postmortem interval about four days) is listed as 1,535 ng/g, the Concentration in brain ([6]; postmortem) is listed as 4.3 ng/g and the “Concentration in heart blood” value ([6]; postmortem) is listed as 12.4 ng/mL. The Concentration in kidney ([6]; postmortem) was 11.2 ng/g and the Concentration in liver ([6]; postmortem) was 18.1 ng/g.
For `CCCCCn1cc(C(=O)c2ccc(CC)c3ccccc23)c2ccccc21` [JWH-210, 4-ethylnaphthalen-1-yl-(1-pentylindol-3-yl)methanone], the “Serum concentration six hours after administration” value [2] is given as 3.1 ± 1.1 ng/mL, the concentration at 6 h ([1]; bile) is given as 26 ± 19 ng/g and the concentration at 6 h ([1]; brain (cerebellum)) is given as 32 ± 9 ng/g. The concentration at 6 h ([1]; brain (cerebrum)) was 20 ± 6.8 ng/g, the concentration at 6 h ([1]; dura) was 1.7 ± 0.8 ng/g and the concentration at 6 h ([1]; heart) was 19 ± 6.1 ng/g. The concentration at 6 h ([1]; kidney (left)) was 43 ± 34 ng/g, the concentration at 6 h ([1]; kidney (right)) was 53 ± 45 ng/g and the concentration at 6 h ([1]; liver) was 14 ± 6.2 ng/g. It also gave a concentration at 6 h ([1]; lung (left)) of 8.6 ± 4.4 ng/g, a concentration at 6 h ([1]; lung (right)) of 6.9 ± 2.1 ng/g and a concentration at 6 h ([1]; psoas muscle) of 20 ± 9.5 ng/g. For the same compound, the concentration at 6 h ([1]; skeletal muscle) was 21 ± 8 ng/g, the concentration at 6 h ([1]; spleen) was 11 ± 6.8 ng/g and the “Detection in vitreous humor (qualitative analysis)” value [1, 7] was “positive results”.
With `CCc1ccc(C(=O)c2cn(CCCCC(=O)O)c3ccccc23)c2ccccc12` [JWH-210-COOH, JWH-210-pentanoic acid] the “Concentration in kidney specimens, individual cases” value ([1]; pigs, 6 h after i.v. 200 µg/kg BW JWH-210, detectable in two cases) was 0.5 ng/g and 1 ng/g.
